Test results: PubChem BioAssay (NCI)
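Exposure lasted 48 hours, with cells grown in 96-well plates and compounds tested at five concentrations. TGI is the concentration that stops growth completely.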

What was measured:
Assay in all cases: NCI-60 cell line screen, 48 h
HOP-92 NSCLC = test system: HOP-92 NSCLC
HT29 colon = test system: HT29 colon
UACC-62 melanoma = test system: UACC-62 melanoma
OVCAR-3 ovarian = test system: OVCAR-3 ovarian
CCRF-CEM leukemia = test system: CCRF-CEM leukemia
NCI/ADR-RES ovarian = test system: NCI/ADR-RES ovarian
ACHN renal = test system: ACHN renal
OVCAR-4 ovarian = test system: OVCAR-4 ovarian
COLO 205 colon = test system: COLO 205 colon
SK-MEL-28 melanoma = test system: SK-MEL-28 melanoma

Structure (SMILES) | TGI (HOP-92 NSCLC) [µM] | TGI (HT29 colon) [µM] | TGI (UACC-62 melanoma) [µM] | TGI (OVCAR-3 ovarian) [µM] | TGI (CCRF-CEM leukemia) [µM] | TGI (NCI/ADR-RES ovarian) [µM] | TGI (ACHN renal) [µM] | TGI (OVCAR-4 ovarian) [µM] | TGI (COLO 205 colon) [µM] | TGI (SK-MEL-28 melanoma) [µM]
COc1ccc(/C=C2\Sc3nnc(C)n3N=C2c2cc(F)c(Cl)cc2Cl)cc1OC | 28.6 | 26.6 | 33.4 | 16 | > 100 | 35.6 | 27.1 | 28.8 | 54.3 | 49.2
COc1ccc2c(c1)c(=O)c1c(NCCCN(C)CCCNc3ccc4c(=O)n(CCN(C)C)c(=O)n5c6ccc(OC)cc6c(=O)c3c45)ccc3c(=O)n(CCN(C)C)c(=O)n2c31 | 0.941 | 1.28 | 0.956 | 2.56 | 0.049 | 2.26 | 1.42 | < 0.049 | 0.803 | 2.32
Cc1ccc(S(=O)(=O)Nc2nc3ccccc3c(=O)n2C2CCCCC2)cc1 | > 100 | > 100 | > 100 | > 100 | > 100 | > 100 | > 100 | > 100 | > 100 | > 100
Cc1c(C#N)c2nnn(-c3ccc([N+](=O)[O-])cc3)c(=O)n2c1-c1ccccc1 | 31.4 | 23.7 | 19.4 | 10 | > 100 | 65.5 | 16.4 | 27.5 | 22.9 | 79.7
Cc1ccc2ccc(=O)oc2c1 | > 100 | > 100 | > 100 | > 100 | > 100 | > 100 | > 100 | > 100 | > 100 | > 100
COc1ccc(-c2cc(C3CC3)nc(SCC(=O)O)c2C#N)cc1 | > 100 | > 100 | > 100 | > 100 | > 100 | > 100 | > 100 | > 100 | > 100 | > 100
COc1ccc(C2c3cc4c(cc3OC(NNC(N)=O)C2C)OCO4)cc1 (stereo not given) | 78.7 | 17.2 | > 70.2 | 14.3 | > 29.4 | > 100 | > 100 | > 100 | 15 | > 100
O=c1[nH]nc(Cc2ccccc2)n1/N=C/c1ccc([N+](=O)[O-])o1 | 30.1 | 18.9 | 4.56 | 29.8 | > 100 | 13.1 | 27.4 | 24.4 | > 100 | 17.6
CC(=O)[C@H]1CC[C@H]2[C@@H]3CCC4=CC(=O)CC[C@]4(C)[C@H]3CC[C@]12C | 71.3 | 29.7 | 30.1 | 35 | 48 | 31.3 | 75.2 | 79.3 | 29.5 | 37.7
OC12C3C4CC5C(C4[C@@H]1Br)C2[C@@](O)(c1c(F)c(F)c(F)c(F)c1F)C53 (stereo not given in full) | 68.7 | > 100 | > 100 | 65.8 | > 100 | 85.9 | > 100 | > 100 | > 100 | > 100
CC(C)(C)OC(=O)NC1CCCC1C(O)(C1=CCCC1)C1=CCCC1 (stereo not given) | > 100 | > 100 | > 100 | > 100 | > 100 | > 100 | > 100 | > 100 | > 100 | > 100
COc1cc(CCNC2=CC(=O)c3cccnc3C2=O)ccc1O | 19 | 4.38 | 2.7 | 5.51 | 25.9 | 11.5 | 5.61 | 3.87 | 3 | 2.56
Cc1ccc(S(=O)(=O)N(CC(O)c2ccccc2)c2ccccc2F)cc1 (stereo not given) | 22.9 | 34.4 | 28 | 25 | 64.5 | 35.1 | 40.1 | 27.4 | 28.8 | 33.1
NNC(=O)Cc1cccnc1 | > 100 | > 100 | > 100 | > 100 | > 100 | > 100 | > 100 | > 100 | > 100 | > 100
CC1(C)CC(=O)C2=C(C1)NC(SCC(=O)O)=C(C#N)C2c1ccc(Br)cc1 (stereo not given) | > 100 | > 100 | > 100 | > 100 | > 100 | > 100 | > 100 | > 100 | > 100 | > 100
CC(/C=N/N(C)C1=NCCCCN1)=N/N(C)C1=NCCCCN1 | > 100 | > 100 | > 100 | > 100 | > 100 | > 100 | > 100 | > 100 | > 100 | > 100
